In article doi:10.1101/2023.10.20.563248v1 (biorxiv, 2023):

Columns and labels:
Details in all cases: 1 µM; inhibitor
[1] = molecular target: ACVR2A (Homo sapiens, UniProt P27037)
[2] = molecular target: AurA (Homo sapiens, UniProt O14965)
[3] = molecular target: CAMK2B (Homo sapiens, UniProt Q13554)
[4] = molecular target: CDK19 (Homo sapiens, UniProt Q9BWU1)
[5] = molecular target: CDK4/CycD2 (Homo sapiens, UniProt P11802)
[6] = molecular target: CDK9/CycT1 (Homo sapiens, UniProt P50750)
[7] = molecular target: DCAMKL2 (Homo sapiens, UniProt Q8N568)
[8] = molecular target: DYRK1A (Homo sapiens, UniProt Q13627)
[9] = molecular target: DYRK4 (Homo sapiens, UniProt Q9NR20)
[10] = molecular target: EPHB4 (Homo sapiens, UniProt P54760)
[11] = molecular target: HIPK2 (Homo sapiens, UniProt Q9H2X6)
[12] = molecular target: IGF1R (Homo sapiens, UniProt P08069)
[13] = molecular target: LYN (Homo sapiens, UniProt P07948)
[14] = molecular target: MKK4 (Homo sapiens, UniProt P45985)
MKK4, sequence (P45985 whole entry): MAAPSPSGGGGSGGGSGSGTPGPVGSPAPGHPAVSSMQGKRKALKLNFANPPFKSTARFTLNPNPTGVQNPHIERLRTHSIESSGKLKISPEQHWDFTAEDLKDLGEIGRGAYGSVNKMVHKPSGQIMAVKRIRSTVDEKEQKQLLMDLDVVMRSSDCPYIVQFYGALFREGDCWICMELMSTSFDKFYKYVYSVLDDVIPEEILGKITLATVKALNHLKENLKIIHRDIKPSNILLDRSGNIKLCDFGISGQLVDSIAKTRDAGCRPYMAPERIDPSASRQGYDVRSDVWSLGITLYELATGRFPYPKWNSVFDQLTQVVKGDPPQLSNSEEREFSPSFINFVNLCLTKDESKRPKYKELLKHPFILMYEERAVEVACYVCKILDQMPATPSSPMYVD

[15] = molecular target: MKNK1 (Homo sapiens, UniProt Q9BUB5)
[16] = molecular target: MTOR (Homo sapiens, UniProt P42345)
[17] = molecular target: NEK4 (Homo sapiens, UniProt P51957)
NEK4, sequence (P51957 whole entry): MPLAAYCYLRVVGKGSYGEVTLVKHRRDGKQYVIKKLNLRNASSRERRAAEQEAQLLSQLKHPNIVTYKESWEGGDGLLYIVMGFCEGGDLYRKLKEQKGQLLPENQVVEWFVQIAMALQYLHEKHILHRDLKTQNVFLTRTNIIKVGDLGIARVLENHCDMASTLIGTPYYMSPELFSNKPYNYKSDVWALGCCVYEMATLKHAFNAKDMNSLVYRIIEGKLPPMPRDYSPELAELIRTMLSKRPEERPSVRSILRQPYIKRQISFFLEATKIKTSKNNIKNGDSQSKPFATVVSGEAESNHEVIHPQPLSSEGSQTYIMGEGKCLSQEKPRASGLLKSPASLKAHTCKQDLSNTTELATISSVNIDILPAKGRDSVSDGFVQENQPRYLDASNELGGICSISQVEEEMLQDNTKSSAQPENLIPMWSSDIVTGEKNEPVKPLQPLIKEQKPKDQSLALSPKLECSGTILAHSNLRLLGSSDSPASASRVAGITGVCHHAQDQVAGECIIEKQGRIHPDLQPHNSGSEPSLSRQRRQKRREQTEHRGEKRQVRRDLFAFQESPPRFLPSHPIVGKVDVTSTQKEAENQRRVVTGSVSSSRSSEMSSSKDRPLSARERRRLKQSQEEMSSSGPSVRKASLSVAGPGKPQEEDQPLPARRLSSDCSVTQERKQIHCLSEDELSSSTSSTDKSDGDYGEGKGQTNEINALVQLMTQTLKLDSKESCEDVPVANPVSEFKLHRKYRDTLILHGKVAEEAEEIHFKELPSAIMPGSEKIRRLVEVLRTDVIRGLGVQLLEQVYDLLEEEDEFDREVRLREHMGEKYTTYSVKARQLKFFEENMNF

[18] = molecular target: PHKG1 (Homo sapiens, UniProt Q16816)
[19] = molecular target: PKCi (Homo sapiens, UniProt P41743)
PKCi, sequence (P41743 whole entry): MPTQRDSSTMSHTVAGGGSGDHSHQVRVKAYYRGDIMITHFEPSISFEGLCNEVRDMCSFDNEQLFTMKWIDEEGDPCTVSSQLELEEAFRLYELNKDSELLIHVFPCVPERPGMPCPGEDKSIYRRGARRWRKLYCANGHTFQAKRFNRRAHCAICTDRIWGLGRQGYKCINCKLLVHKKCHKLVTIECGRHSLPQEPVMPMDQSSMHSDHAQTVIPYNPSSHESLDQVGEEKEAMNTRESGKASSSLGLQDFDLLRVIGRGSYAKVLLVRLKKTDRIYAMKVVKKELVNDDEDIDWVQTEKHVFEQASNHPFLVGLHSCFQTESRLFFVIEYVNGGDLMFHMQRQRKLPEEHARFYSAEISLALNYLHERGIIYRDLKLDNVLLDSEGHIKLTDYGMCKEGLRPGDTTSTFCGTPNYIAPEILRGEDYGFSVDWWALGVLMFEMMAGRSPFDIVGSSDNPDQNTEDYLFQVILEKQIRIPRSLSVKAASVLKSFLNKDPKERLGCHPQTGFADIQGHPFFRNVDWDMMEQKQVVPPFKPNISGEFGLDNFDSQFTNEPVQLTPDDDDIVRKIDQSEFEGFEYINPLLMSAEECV

[20] = molecular target: PKCz (Homo sapiens, UniProt Q05513)
[21] = molecular target: PRK1 (Homo sapiens, UniProt Q16512)
[22] = molecular target: PRK2 (Homo sapiens, UniProt Q16513)
[23] = molecular target: PRKX (Homo sapiens, UniProt P51817)
PRKX, sequence (P51817 whole entry): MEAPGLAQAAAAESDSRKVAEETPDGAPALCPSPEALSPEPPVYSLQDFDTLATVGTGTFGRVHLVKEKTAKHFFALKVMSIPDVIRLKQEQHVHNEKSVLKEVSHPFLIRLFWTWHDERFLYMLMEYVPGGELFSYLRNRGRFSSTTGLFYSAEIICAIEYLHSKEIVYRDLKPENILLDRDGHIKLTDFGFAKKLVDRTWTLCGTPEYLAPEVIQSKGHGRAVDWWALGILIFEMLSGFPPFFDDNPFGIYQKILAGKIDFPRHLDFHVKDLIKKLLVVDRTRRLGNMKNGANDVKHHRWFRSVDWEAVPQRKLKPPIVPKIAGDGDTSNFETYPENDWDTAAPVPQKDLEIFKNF

[24] = molecular target: RIPK2 (Homo sapiens, UniProt O43353)
RIPK2, sequence (O43353 whole entry): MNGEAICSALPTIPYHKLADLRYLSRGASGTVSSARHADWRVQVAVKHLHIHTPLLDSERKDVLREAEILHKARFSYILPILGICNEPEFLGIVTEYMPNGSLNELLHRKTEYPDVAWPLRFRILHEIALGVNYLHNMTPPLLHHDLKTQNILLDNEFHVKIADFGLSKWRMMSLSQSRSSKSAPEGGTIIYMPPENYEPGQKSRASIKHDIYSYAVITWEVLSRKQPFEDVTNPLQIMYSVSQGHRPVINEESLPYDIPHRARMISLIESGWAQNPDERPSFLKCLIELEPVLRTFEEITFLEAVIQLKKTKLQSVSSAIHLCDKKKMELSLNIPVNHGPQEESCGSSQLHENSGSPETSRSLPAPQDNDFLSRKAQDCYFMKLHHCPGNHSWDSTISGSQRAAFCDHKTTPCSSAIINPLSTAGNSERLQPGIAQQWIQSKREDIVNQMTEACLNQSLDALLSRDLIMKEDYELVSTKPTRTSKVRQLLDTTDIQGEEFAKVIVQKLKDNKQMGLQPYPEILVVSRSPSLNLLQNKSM

[25] = molecular target: ROCK2 (Homo sapiens, UniProt O75116)
[26] = molecular target: RPS6KA3 (Homo sapiens, UniProt P51812)
[27] = molecular target: SIK1 (Homo sapiens, UniProt P57059)
[28] = molecular target: STK25 (Homo sapiens, UniProt O00506)
[29] = molecular target: TRKA (Homo sapiens, UniProt P04629)
[30] = molecular target: TTBK2 (Homo sapiens, UniProt Q6IQ55)
[31] = molecular target: p38d (Homo sapiens, UniProt O15264)

CAMK2B, sequence (Q13554 whole entry): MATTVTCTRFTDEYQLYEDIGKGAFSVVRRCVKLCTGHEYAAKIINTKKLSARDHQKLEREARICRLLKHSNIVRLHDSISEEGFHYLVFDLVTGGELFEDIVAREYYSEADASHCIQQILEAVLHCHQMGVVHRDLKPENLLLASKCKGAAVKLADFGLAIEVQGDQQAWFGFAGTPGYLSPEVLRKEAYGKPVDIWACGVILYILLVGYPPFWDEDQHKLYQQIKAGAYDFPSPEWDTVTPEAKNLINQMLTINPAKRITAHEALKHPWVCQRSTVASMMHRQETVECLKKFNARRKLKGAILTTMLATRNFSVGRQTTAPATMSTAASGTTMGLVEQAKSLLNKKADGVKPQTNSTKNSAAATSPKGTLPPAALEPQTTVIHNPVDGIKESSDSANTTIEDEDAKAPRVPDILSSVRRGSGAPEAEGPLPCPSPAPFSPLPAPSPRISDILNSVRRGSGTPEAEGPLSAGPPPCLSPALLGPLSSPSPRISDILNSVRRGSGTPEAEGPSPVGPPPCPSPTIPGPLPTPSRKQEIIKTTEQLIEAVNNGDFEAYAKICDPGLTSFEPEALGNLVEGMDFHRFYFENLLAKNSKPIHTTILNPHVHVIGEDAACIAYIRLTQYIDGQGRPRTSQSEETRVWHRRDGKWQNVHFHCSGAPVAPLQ
CDK9/CycT1, sequence (P50750 whole entry): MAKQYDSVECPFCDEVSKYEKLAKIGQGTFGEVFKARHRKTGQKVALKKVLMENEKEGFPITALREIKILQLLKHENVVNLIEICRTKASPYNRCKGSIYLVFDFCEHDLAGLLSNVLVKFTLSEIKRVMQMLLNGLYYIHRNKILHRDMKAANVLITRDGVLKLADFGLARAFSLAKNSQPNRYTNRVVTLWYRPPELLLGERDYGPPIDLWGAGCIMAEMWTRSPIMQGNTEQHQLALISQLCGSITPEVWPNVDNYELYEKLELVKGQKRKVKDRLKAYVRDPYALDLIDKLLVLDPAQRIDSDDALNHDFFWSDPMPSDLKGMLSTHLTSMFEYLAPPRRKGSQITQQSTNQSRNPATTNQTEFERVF
CDK9/CycT1, sequence (O60563 whole entry partner): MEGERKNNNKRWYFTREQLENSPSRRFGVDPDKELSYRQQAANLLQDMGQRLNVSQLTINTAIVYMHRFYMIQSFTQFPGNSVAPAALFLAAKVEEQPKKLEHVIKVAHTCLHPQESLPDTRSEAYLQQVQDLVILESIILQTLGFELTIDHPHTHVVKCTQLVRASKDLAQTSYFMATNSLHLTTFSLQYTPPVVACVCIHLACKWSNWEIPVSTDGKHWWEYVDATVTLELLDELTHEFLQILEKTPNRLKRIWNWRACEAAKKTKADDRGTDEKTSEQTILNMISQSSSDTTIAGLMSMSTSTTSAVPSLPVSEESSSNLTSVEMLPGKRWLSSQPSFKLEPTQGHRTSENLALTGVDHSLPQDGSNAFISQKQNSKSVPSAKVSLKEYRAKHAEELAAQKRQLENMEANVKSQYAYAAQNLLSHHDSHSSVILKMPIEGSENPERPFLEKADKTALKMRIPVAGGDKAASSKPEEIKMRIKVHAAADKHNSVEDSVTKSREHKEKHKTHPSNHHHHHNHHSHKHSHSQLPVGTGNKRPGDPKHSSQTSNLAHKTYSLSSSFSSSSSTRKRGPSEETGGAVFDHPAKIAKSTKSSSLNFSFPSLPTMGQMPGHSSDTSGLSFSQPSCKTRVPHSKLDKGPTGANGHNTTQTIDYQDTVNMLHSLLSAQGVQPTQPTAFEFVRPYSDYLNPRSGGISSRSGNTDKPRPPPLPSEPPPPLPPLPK
CDK19, sequence (Q9BWU1 whole entry): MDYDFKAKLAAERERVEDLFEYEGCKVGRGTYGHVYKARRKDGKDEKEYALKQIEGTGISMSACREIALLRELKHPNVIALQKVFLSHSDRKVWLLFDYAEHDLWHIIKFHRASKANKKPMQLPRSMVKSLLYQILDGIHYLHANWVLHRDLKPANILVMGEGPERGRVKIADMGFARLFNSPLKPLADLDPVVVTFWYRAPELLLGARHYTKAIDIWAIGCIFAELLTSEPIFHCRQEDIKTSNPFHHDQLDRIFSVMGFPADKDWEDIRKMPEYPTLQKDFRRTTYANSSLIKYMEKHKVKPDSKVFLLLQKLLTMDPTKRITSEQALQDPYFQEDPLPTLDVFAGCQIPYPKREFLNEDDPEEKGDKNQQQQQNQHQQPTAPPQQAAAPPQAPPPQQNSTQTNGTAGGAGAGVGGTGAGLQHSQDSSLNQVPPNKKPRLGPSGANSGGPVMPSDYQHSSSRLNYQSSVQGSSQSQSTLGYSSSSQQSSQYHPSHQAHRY

In the case of `O=C1NCCCCCNc2nc(c3ccccc3n2)Nc2cc1[nH]n2` [21c, (Z)-3^1H-2,5,11-triaza-1(4,2)-quinazolina-3(3,5)-pyrazolacycloundecaphan-4-one], the “21c Remaining activity, percent of control [%]” value [1] is reported as 95.3%, the “21c Remaining activity, percent of control [%]” value [2] is reported as 83.6% and the “21c Remaining activity, percent of control [%]” value [3] is reported as 88.8%. The “21c Remaining activity, percent of control [%]” value [4] was 92.8%, the “21c Remaining activity, percent of control [%]” value [5] was 106.8% and the “21c Remaining activity, percent of control [%]” value [6] was 85.7%. The “21c Remaining activity, percent of control [%]” value [7] was 99.3%, the “21c Remaining activity, percent of control [%]” value [8] was 82.2% and the “21c Remaining activity, percent of control [%]” value [9] was 95.6%. For the same molecule, the “21c Remaining activity, percent of control [%]” value [10] was 86.1%, the “21c Remaining activity, percent of control [%]” value [11] was 74.8% and the “21c Remaining activity, percent of control [%]” value [12] was 102.9%. For the same molecule, the “21c Remaining activity, percent of control [%]” value [13] was 139.3%, the “21c Remaining activity, percent of control [%]” value [14] was 127.3% and the “21c Remaining activity, percent of control [%]” value [15] was 97.3%. For the same molecule, the “21c Remaining activity, percent of control [%]” value [16] was 99.2%, the “21c Remaining activity, percent of control [%]” value [17] was 103.8% and the “21c Remaining activity, percent of control [%]” value [18] was 98.0%. The “21c Remaining activity, percent of control [%]” value [19] was 83.5%, the “21c Remaining activity, percent of control [%]” value [20] was 96.3% and the “21c Remaining activity, percent of control [%]” value [21] was 91.8%. The “21c Remaining activity, percent of control [%]” value [22] was 89.5%, the “21c Remaining activity, percent of control [%]” value [23] was 93.9% and the “21c Remaining activity, percent of control [%]” value [24] was 105.0%. The “21c Remaining activity, percent of control [%]” value [25] was 89.7%, the “21c Remaining activity, percent of control [%]” value [26] was 87.3% and the “21c Remaining activity, percent of control [%]” value [27] was 86.3%. The “21c Remaining activity, percent of control [%]” value [28] was 57.2%, the “21c Remaining activity, percent of control [%]” value [29] was 90.8% and the “21c Remaining activity, percent of control [%]” value [30] was 109.9%. The “21c Remaining activity, percent of control [%]” value [31] was 94.8%.
